Consider two compounds from patent US10624875B2, “Methods and compositions for treating schizophrenia” (The Johns Hopkins University, priority 2012, dated 2020).

In experiment [1] the test system is HPC neurons. Particulars: saline-treated and MAM-treated animals; cited from earlier work.
The subject of experiment [2] is MAM-treated rats. The following applies: administered systemically and directly infused into the ventral HPC; cited from earlier work.
For experiment [3], the system named is MAM-treated rats. Particulars: cited from earlier work.
The test system of experiment [4] is aged-impaired (AI) rats. The experiment is described as follows: eight-arm Radial Arm Maze (RAM) task with one-hour delay, spatial memory retention. The following applies: drug on its own (levetiracetam i.p., valproate subcutaneous). It counts as in vivo, rat. The method, then:
The effects of levetiracetam on the spatial memory retention of aged-impaired (AI) rats were assessed in a Radial Arm Maze (RAM) behavioral task using vehicle control and five different dosage levels of levetiracetam (1.25 mg/kg/day, 2.5 mg/kg/day, 5 mg/kg/day, 10 mg/kg/day and 20 mg/kg/day). RAM behavioral tasks were preformed on ten AI rats. All six treatment conditions were tested on all ten rats, as described above for the MWM test. The RAM apparatus used consisted of eight equidistantly-spaced arms. An elevated maze arm (7 cm width×75 cm length) projected from each facet of an octagonal center platform (30 cm diameter, 51.5 cm height). Clear side walls on the arms were 10 cm high and were angled at 65° to form a trough. A food well (4 cm diameter, 2 cm deep) was located at the distal end of each arm. Froot Loops™ (Kellogg Company) were used as rewards. Blocks constructed of Plexiglas™ (30 cm height×12 cm width) could be positioned to prevent entry to any arm. Numerous extra maze cues surrounding the apparatus were also provided. The AI rats were initially subjected to a pre-training test (Chappell et al. Neuropharmacology 37: 481-487, 1998). The pre-training test consisted of a habituation phase (4 days), a training phase on the standard win-shift task (18 days) and another training phase (14 days) in which a brief delay was imposed between presentation of a subset of arms designated by the experimenter (e.g., 5 arms available and 3 arms blocked) and completion of the eight-arm win-shift task (i.e., with all eight arms available). In the habituation phase, rats were familiarized to the maze for an 8-minute session on four consecutive days. In each of these sessions food rewards were scattered on the RAM, initially on the center platform and arms and then progressively confined to the arms. After this habituation phase, a standard training protocol was used, in which a food pellet was located at the end of each arm. Rats received one trial each day for 18 days. Each daily trial terminated when all eight food pellets had been obtained or when either 16 choices were made or 15 minutes had elapsed. After completion of this training phase, a second training phase was carried out in which the memory demand was increased by imposing a brief delay during the trial. At the beginning of each trial, three arms of the eight-arm maze were blocked. Rats were allowed to obtain food on the five arms to which access was permitted during this initial ‘information phase’ of the trial. Rats were then removed from the maze for 60 seconds, during which time the barriers on the maze were removed, thus allowing access to all eight arms. Rats were then placed back onto the center platform and allowed to obtain the remaining food rewards during this ‘retention test’ phase of the trial. The identity and configuration of the blocked arms varied across trials. The number of “errors” the AI rats made during the retention test phase was tracked. An error occurred in the trial if the rats entered an arm from which food had already been retrieved in the pre-delay component of the trial, or if it re-visited an arm in the post-delay session that had already been visited. After completion of the pre-training test, rats were subjected to trials with more extended delay intervals, i.e., a one-hour delay, between the information phase (presentation with some blocked arms) and the retention test (presentation of all arms). […]

SMILES strings stand for the structures. Where “and” joins values, the source holds several entries; their conditions need not be identical. Equal values may be shown once.

For `C#Cc1ccc2c(c1)C(c1ccccc1F)=N[C@H](C)c1c(C(=O)OCC)ncn1-2` [SH-053-2′F—R—CH3], in experiment [1], the “cortical-evoked responses of HPC neurons” value is listed as “diminished cortical-evoked responses”. The “number of spontaneously active DA neurons in the ventral tegmental area (VTA)” value in experiment [2] is listed as “reduces the number of spontaneously active DA neurons”. Moreover, the “increased locomotor response to amphetamine” value in experiment [3] is reported as “is reduced”.

Consider `CCCC(CCC)C(=O)O` [Valproate], for which, in experiment [4], the “dose effective in reducing the number of errors” value was 100 mg/kg; the “dose not effective in reducing the number of errors” value was 25 mg/kg and 50 mg/kg.
